Test results as given in patent US12545699B2, “Bivalent LECA inhibitors targeting biofilm formation of Pseudomonas aeruginosa” (HELMHOLTZ-ZENTRUM FÜR INFEKTIONSFORSCHUNG GMBH, priority 2019, dated 2026).

Tests used:
LecA [1] = target: T1, LecA (Pseudomonas aeruginosa, UniProt Q05097); test: surface plasmon resonance (SPR) direct binding to immobilised LecA
T1 construct: made in house
Method: All experiments were performed on a BIACORE X100 instrument (GE Healthcare) at 25° C. and a flow rate of 10 μL min^−1. […] LecA was dissolved in 10 mM sodium acetate pH 4.5 (100 μg mL^−1) and injected over the activated chip surface on channel 2 (contact time of 540 s) until the response of ˜4000 RU was reached. Excess free amine groups were capped with an injection of 1 M ethanolamine (contact time 540 s). Bivalent compounds were dissolved in 100% DMSO and subsequently diluted to required concentrations in a running buffer (10 mM phosphate buffer pH 7.4, 2.7 mM KCl, 137 mM NaCl, 100 μM CaCl2, 0.05% Tween 20, 5% DMSO). The bivalent analytes were subjected to single-cycle kinetics analyses (contact time of 120 s and dissociation time of 120 s) consisting of injections of the analytes at 0, 10, 50, 100, and 200 nM over the immobilised-LecA. The chip surface was regenerated by 5× injections of 100 μM 4-nitrophenyl-β-D-galactose (contact time of 120 s). KD determination was performed using BIACORE X100 evaluation software (version 2.0) by applying 1:1 binding model to fit the experimental data. • [1] H. E. Gottlieb, V. Kotlyar, A. Nudelman, J. Org. Chem. 1997, 62, 7512-7515. • [2] M. Seligman, J. Biol. Chem. 1952, 195, 239-249. • [3] S. T. Xue, W. Y. He, L. L. Ma, H. Q. Wang, B. Wang, G. H. Zheng, X. Y. Ji, T. Zhang, Y. H. Li, J. D. Jiang, et al., Molecules 2013, 18, 3789-3805. • [4] Y. Li, H. Mo, G. Lian, B. Yu, Carbohydr. Res. 2012, 363, 14-22. • [5] F. Yang, F. Xie, Y. Zhang, Y. Xia, W. Liu, F. Jiang, C. Lam, Y. Qiao, D. Xie, J. Li, et al., Bioorganic Med. Chem. Lett. 2017, 27, 2166-2170. Synthesis Schemes and Results of Biophysical Assays

LecA [2] = target: T1, LecA; test: isothermal titration microcalorimetry (ITC); assay type: binding; conditions: ITC Kd, Table 1; TBS/Ca2+ buffer, 25° C.
Method: Expression and purification of LecA as well as competitive binding by fluorescence polarization was performed as described by Joachim et al. (Org. Biomol. Chem. 2016). Microcalorimetry was performed using an ITC200 (GE Healthcare) at highest possible LecA concentration (typically 200-400 μM) in the cell and titration of ligand in the same buffer at 25° C.

LecA [3] = target: T1, LecA; test: competitive binding assay based on fluorescence polarisation (FP); conditions: FP IC50, Table 1, 20 μM LecA
Method: Binding of ligands to LecA was evaluated in competitive assay based on fluorescence polarisation.

T1 sequence (Q05097 whole entry): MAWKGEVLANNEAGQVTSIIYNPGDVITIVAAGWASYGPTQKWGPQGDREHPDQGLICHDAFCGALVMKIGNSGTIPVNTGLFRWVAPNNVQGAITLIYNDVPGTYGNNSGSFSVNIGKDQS

Row | Compound | Kd (LecA [1]) | Kd (LecA [2]) | IC50 (LecA [3]; 10 nM reporter ligand 8, TBS/Ca2+ buffer with 25% DMSO (**)) | IC50 (LecA [3]; 10 nM reporter ligand 8, TBS/Ca2+ buffer with 4% DMSO (*))
1 | COc1ccc(C=NNC(=O)c2cccc(OC3OC(CO)C(O)C(O)C3O)c2)cc1 (stereo not drawn) [Compound F6m] | 4.9 ± 0.1 µM | 2.4 ± 1.33 µM | 21.6 ± 4.5 µM | –
2 | COc1ccc(C=NNC(=O)c2ccc(OC3OC(CO)C(O)C(O)C3O)cc2)cc1 (stereo not drawn) [Compound F6p] | 4.8 ± 2.1 µM | 6.11 ± 0.48 µM | – | 23.1 µM
